Source: patent US4808618A, “Substituted 1,3-dialkylpyrido[4,3-d]pyrimidine-2,4-diones” (Nippon Zoki Pharmaceutical Co., Ltd., priority 1986, dated 1989)

Columns and labels:
[1] = test system: PCA (Passive Cutaneous Anaphylaxis) reaction; test: PCA (Passive Cutaneous Anaphylaxis) reaction in rats, anti-allergic effect; assay type: in vivo, rat (Wister-strain; conditions: 20 mg/kg oral, 1 hour before challenge; Wister-strain male rats; dye absorbance at 620 nm
Experimental: PCA (Passive Cutaneous Anaphylaxis) reaction in rats was taken as an index to an anti-allergic effect of the compound of the present invention.
In order to perform sensitization, anti-DNP-Asc (dinitrophenylated Ascaris extracts) serum diluted with saline was injected intradermally at 4 sites on the shaved back of groups of 6 Wister-strain male rats (6 weeks of age). 1 hour after oral administration of the test drug, the mixture of equivalent amount of DNP-Asc (5 mg/ml) and 2% Evans blue were intravenously injected to generate PCA reaction. 30 minutes thereafter, rats were killed by decapitation and exsanguinated. The skin was opened in order to evaluate the leakage of blue dye. The obtained skin was dissolved in 2N potassium hydroxide, then 2N phosphoric acid and acetone were added thereto. The amount of dye was determined by measurement of absorbance at 620 nm after centrifugation.

[2] = Acute toxicity test (oral, LD50 by Litchfield-Wilcoxon's method); conditions: mouse, in vivo, ICR-strain male mice, groups of 5, mortality for 14 days
Experimental: The test compounds were orally administered to groups of 5 ICR-strainmale mice. LD50 value of the compound of the present invention was calculated by the Litchfield-Wilcoxon's method based on mortality for 14 days after drug administration.

SMILES	Inhibition (PCA reaction) [1]	LD50 at 336 h [2]
Cn1c(=O)c2cnccc2n(C)c1=O [Compound 1, 1,3-dimethylpyrido[4,3-d]pyrimidine-2,4-dione]	85.3%	400 mg/kg
Cn1c(=O)c2c(N)nccc2n(C)c1=O [Compound 3, 5-amino-1,3-dimethylpyrido[4,3-d]pyrimidine-2,4-dione]	77.3%	710 mg/kg
CCn1c(=O)c2c(N)nccc2n(CC)c1=O [Compound 4, 5-amino-1,3-diethylpyrido[4,3-d]pyrimidine-2,4-dione]	89.3%	–
CNc1nccc2c1c(=O)n(C)c(=O)n2C [Compound 6, 5-methylamino-1,3-dimethylpyrido[4,3-d]pyrimidine-2,4-dione]	92.0%	720 mg/kg
CCn1c(=O)c2c(NC)nccc2n(CC)c1=O [Compound 7, 5-methylamino-1,3-diethylpyrido[4,3-d]pyrimidine-2,4-dione]	72.7%	–
CC(C)Nc1nccc2c1c(=O)n(C)c(=O)n2C [Compound 8, 5-isopropylamino-1,3-dimethylpyrido[4,3-d]pyrimidine-2,4-dione]	73.4%	700 mg/kg
Cn1c(=O)c2[nH]cnc2n(C)c1=O [Theophylline, reference compound]	78.7%	–
